Measurements as given in patent US11369565B2, “Amino-pyrimidine skeletal muscle modulators” (Cytokinetics, Inc., priority 2010, dated 2022).

tested on: rabbit skeletal myofibrils (approximately 90% fast fibers); assay: Activation of fast skeletal myofibrils (PUMA coupled-enzyme ATPase assay at pCa25); assay type: biochemical; settings: concentration at which the compound increased the enzymatic activity by 40%; calcium at pCa25; PM12 buffer pH 6.8
Outline: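 Detergent-washed rabbit psoas myofibrils tested at calcium giving 25% of maximal rate (pCa25). ATPase activity tracked by pyruvate kinase/lactate dehydrogenase coupling, NADH oxidation read as absorbance at 340 nm, in PM12 buffer (12 mM Pipes, 2 mM MgCl2, 1 mM DTT, pH 6.8).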

Q: Which “Mean AC1.4” value does the source give for `Fc1cccnc1C1(Nc2nccc(C(F)(F)F)n2)CCC1` [[(3-fluoro(2-pyridyl))cyclobutyl][4-(trifluoromethyl)pyrimidin-2-yl]amine] here?
A: Its value is “D (D=>20 uM)”.

Q: How did the “Mean AC1.4” value turn out when `Oc1ccc(-c2cnc(NC[C@]3(c4ncccc4F)C[C@H](F)C3)nc2)nn1` [6-[2-({[3-fluoro-1-(3-fluoro(2-pyridyl))cyclobutyl]methyl}amino)pyrimidin-5-yl]pyridazin-3-ol] was run?
A: Its value is “D (D=>20 uM)”.

Q: With `CC(C)(Nc1ncc(-c2ncc(C#N)s2)cn1)c1ncccc1F` [2-(2-{[1-(3-fluoro(2-pyridyl))-isopropyl]amino}pyrimidin-5-yl)-1,3-thiazole-5-carbonitrile] as the molecule, how does the “Mean AC1.4” value read?
A: Its value is “D (D=>20 uM)”.

Q: How did the “Mean AC1.4” value turn out when `N#CCc1cnc(-c2cnc(NCC3(c4ncccc4F)CCC3)nc2)s1` [2-{2-[2-({[(3-fluoro-2-pyridyl)cyclobutyl]methyl}amino)pyrimidin-5-yl]-1,3-thiazol-5-yl}ethanenitrile] was run?
A: The value was “B (B=1-10 uM)”.

Q: Which “Mean AC1.4” value does the source give for `CC(C)(Nc1ncc(-c2cn3ccc(C(N)=O)cc3n2)cn1)c1ncccc1Cl` [2-(2-{[1-(3-chloro(2-pyridyl))-isopropyl]amino}pyrimidin-5-yl)-4-hydroimidazo[1,2-a]pyridine-7-carboxamide] here?
A: Its value is “D (D=>20 uM)”.

Q: Which “Mean AC1.4” value does the source give for `CC(C)(Nc1ncc(-c2nccs2)cn1)c1ncccc1Cl` [[1-(3-chloro(2-pyridyl))-isopropyl](5-(1,3-thiazol-2-yl)pyrimidin-2-yl)amine] here?
A: Its value is “B (B=1-10 uM)”.

Q: How did the “Mean AC1.4” value turn out when `NC(=O)c1ccc(=O)n(-c2cnc(NC[C@]3(c4ncccc4F)C[C@H](F)C3)nc2)c1` [1-[2-({[3-fluoro-1-(3-fluoro(2-pyridyl))cyclobutyl]methyl)amino)pyrimidin-5-yl]-6-oxohydropyridine-3-carboxamide] was run?
A: The value was “D (D=>20 uM)”.

Q: With `Oc1ccc(-c2cnc(NC[C@]3(c4ncccc4F)C[C@H](F)C3)nc2)nc1` [6-[2-({[3-fluoro-1-(3-fluoro(2-pyridyl))cyclobutyl]methyl}amino)pyrimidin-5-yl]pyridin-3-ol] as the molecule, how does the “Mean AC1.4” value read?
A: The value was “B (B=1-10 uM)”.

Q: `COc1nc(NC[C@]2(c3ncccc3F)C[C@H](F)C2)ncc1-c1cccc(C(N)=O)c1` [3-[2-({[3-fluoro-1-(3-fluoro(2-pyridyl))cyclobutyl]methyl}amino)-4-methoxypyrimidin-5-yl]benzamide] was tested. Which “Mean AC1.4” value did it give?
A: The value was “A (A=<1 uM)”.

Q: “N-(2-aminoethyl)[2-({[(3-fluoro(2- pyridyl))cyclobutyl]methyl}amino) pyrimidin-5-yl]carboxamide” was tested. Which “Mean AC1.4” value did it give?
A: The value was “D (D=>20 uM)”.

Q: Which “Mean AC1.4” value does the source give for `COc1ccc(NC(=O)c2cnc(NCC3(c4ncccc4F)CCC3)nc2)cn1` [[2-({[(3-fluoro(2-pyridyl))cyclobutyl]methyl}amino)pyrimidin-5-yl]-N-(6-methoxy(3-pyridyl))carboxamide] here?
A: Its value is “D (D=>20 uM)”.

Q: `CC(C)(Nc1ncc(-c2ccc(C(=O)O)s2)cn1)c1ncccc1Cl` [5-(2-{[1-(3-chloro(2-pyridyl))-isopropyl]amino}pyrimidin-5-yl)thiophene-2-carboxylic acid] was tested. Which “Mean AC1.4” value did it give?
A: The value was “D (D=>20 uM)”.

Q: Which “Mean AC1.4” value does the source give for `N#Cc1ccnc(NC2(c3ccc(F)cc3)CCC2)n1` [2-{[(4-fluorophenyl)cyclobutyl]amino} pyrimidine-4-carbonitrile] here?
A: Its value is “D (D=>20 uM)”.

Q: How did the “Mean AC1.4” value turn out when `O=C(NC1CC(O)C1)c1ccc(F)c(-c2cnc(NC[C@]3(c4ncccc4F)C[C@H](F)C3)nc2)c1` (some centres unmarked) [{4-fluoro-3-[2-({[3-fiuoro-1-(3-fluoro(2-pyridyl))cyclobutyl]methyl}amino)pyrimidin-5-yl]phenyl}-N-(3-hydroxycyclobutyl)carboxamide] was run?
A: Its value is “A (A=<1 uM)”.

Q: `CC(C)(Nc1ncc(-n2cc(C(=O)O)cn2)cn1)c1ncccc1Cl` [1-(2-{[1-(3-chloro(2-pyridyl))-isopropyl]amino}pyrimidin-5-yl)pyrazole-4-carboxylic acid] was tested. Which “Mean AC1.4” value did it give?
A: Its value is “D (D=>20 uM)”.

Q: Which “Mean AC1.4” value does the source give for `CC(C)(Nc1ncc(-c2cc(C(N)=O)ccc2F)cn1)c1cccnc1Cl` [3-(2-{[1-(2-chloro(3-pyridyl))-isopropyl]amino}pyrimidin-5-yl)-4-fluorobenzamide] here?
A: Its value is “B (B=1-10 uM)”.

Q: How did the “Mean AC1.4” value turn out when `COc1ccnc(C(C)(C)Nc2ncc(-c3ncc(C(N)=O)s3)cn2)n1` [2-(2-{[1-(4-methoxypyrimidin-2-yl)-isopropyl]amino}pyrimidin-5-yl)-1,3-thiazole-5-carboxamide] was run?
A: Its value is “D (D=>20 uM)”.

Q: How did the “Mean AC1.4” value turn out when `Fc1ccc(C2(Nc3ncc(Br)cn3)CCC2)cc1` [(5-bromopyrimidin-2-yl)[(4-fluorophenyl)cyclobutyl]amine] was run?
A: Its value is “D (D=>20 uM)”.

Q: `COC(=O)c1ccn(-c2cnc(NC[C@]3(c4ncccc4F)C[C@H](F)C3)nc2)c1` [methyl 1-[2-({[3-fluoro-1-(3-fluoro(2-pyridyl))cyclobutyl]methyl}amino)pyrimidin-5-yl]pyrrole-3-carboxylate] was tested. Which “Mean AC1.4” value did it give?
A: Its value is “D (D=>20 uM)”.

Q: With `O=c1cc(O)ccn1-c1cnc(NC[C@]2(c3ncccc3F)C[C@H](F)C2)nc1` [1-[2-({[3-fluoro--1-(3-fluoro(2-pyridyl))cyclobutyl]methyl)amino)pyrimidin-5-yl]-4-hydroxyhydropyridin-2-one] as the molecule, how does the “Mean AC1.4” value read?
A: The value was “D (D=>20 uM)”.

Q: Which “Mean AC1.4” value does the source give for `Fc1ccc(C2(Nc3nccc(C(F)(F)F)n3)CCC2)cc1` [[(4-fluorophenyl)cyclobutyl][4-(trifluoromethyl)pyrimidin-2-yl]amine] here?
A: The value was “C (C=10-20 uM)”.

Q: How did the “Mean AC1.4” value turn out when `O=C(Nc1nccs1)c1cnc(NCC2(c3ncccc3F)CCC2)nc1` [[2-({[(3-fluoro(2-pyridyl))cyclobutyl]methyl}amino)pyrimidin-5-yl]-N-(1,3-thiazol-2-yl)carboxamide] was run?
A: Its value is “B (B=1-10 uM)”.

Q: Which “Mean AC1.4” value does the source give for `CC(C)(Nc1ncc(-c2cc(C(N)=O)ccc2F)cn1)c1ncccc1C(F)F` [3-[2-({1-[3-(difluoromethyl)(2-pyridyl)]-isopropyl)amino)pyrimidin-5-yl]-4-fluorobenzamide] here?
A: The value was “B (B=1-10 uM)”.

Q: `CC(C)(Nc1ncc(-c2ncc(C(N)=O)o2)cn1)c1ncccc1Cl` [2-(2-{[1-(3-chloro(2-pyridyl))-isopropyl]amino}pyrimidin-5-yl)-1,3-oxazole-5-carboxamide] was tested. Which “Mean AC1.4” value did it give?
A: The value was “D (D=>20 uM)”.

Q: With `CC(C)(Nc1ncc(-c2nc(CNC(=O)CN)cs2)cn1)c1ncccc1F` [2-amino-N-{[2-(2-{[1-(3-fluoro(2-pyridyl))-isopropyl]amino}pyrimidin-5-yl)(1,3-thiazol-4-yl)]methyl}acetamide] as the molecule, how does the “Mean AC1.4” value read?
A: The value was “D (D=>20 uM)”.

Q: `N#Cc1cc(-c2cnc(NC3(c4ncccc4F)CCC3)nc2)ccn1` [4-(2-{[(3-fluoro-2-pyridyl)cyclobutyl]amino}pyrimidin-5-yl)pyridine-2-carbonitrile] was tested. Which “Mean AC1.4” value did it give?
A: Its value is “D (D=>20 uM)”.

Q: Which “Mean AC1.4” value does the source give for `Oc1cnc(-c2cnc(NC[C@]3(c4ncccc4F)C[C@H](F)C3)nc2)c(F)c1` [5-fluoro-6-[2-(([3-fluoro-1-(3-fluoro(2-pyridyl))cyclobutyl]methyl}amino)pyrimidin-5-yl]pyridin-3-ol] here?
A: Its value is “B (B=1-10 uM)”.

Q: How did the “Mean AC1.4” value turn out when `NC(=O)c1cnc(NC2(c3ncccc3F)CCC2)nc1C(F)(F)F` [2-{[(3-fluoro(2-pyridyl))cyclobutyl]amino)-4-(trifluoromethyl)pyrimidine-5-carboxamide] was run?
A: The value was “D (D=>20 uM)”.

Q: “ethyl 1-[(2-{[2-(4-fluorophenyl)-2- methylpropyl]amino}pyrimidin-5- yl)carbonylamino] cyclopropanecarboxylate” was tested. Which “Mean AC1.4” value did it give?
A: The value was “D (D=>20 uM)”.

Q: For `N#Cc1n[nH]c2cc(F)c(-c3cnc(NC4(c5ncccc5F)CCC4)nc3)cc12` [6-fluoro-5-(2-{[(3-fluoro(2-pyridyl))cyclobutyl]amino}pyrimidin-5-yl)-1H-indazole-3-carbonitrile], which “Mean AC1.4” value is on record?
A: The value was “B (B=1-10 uM)”.

Q: For `O=C(Nc1cnc(NCC2(c3ncccc3F)CCC2)nc1)c1nccs1` [N-[2-(([(3-fluoro(2-pyridyl))cyclobutyl]methyl}amino)pyrimidin-5-yl]-1,3-thiazol-2-ylcarboxamide], which “Mean AC1.4” value is on record?
A: The value was “D (D=>20 uM)”.

Q: With `CC(=O)N1CC(NC(=O)c2cccc(-c3cnc(NC[C@]4(c5ncccc5F)C[C@H](F)C4)nc3)c2)C1` [N-(1-acetylazetidin-3-yl){3-[2-({[3-fluoro-1-(3-fluoro(2-pyridyl))cyclobutyl]methyl}amino)pyrimidin-5-yl]phenyl}carboxamide] as the molecule, how does the “Mean AC1.4” value read?
A: The value was “B (B=1-10 uM)”.

Q: With `CN(C(=O)c1cnc(NCC2(c3ncccc3F)CCC2)nc1)c1nccs1` [[2-({[(3-fluoro(2-pyridyl))cyclobutyl)]methyl}amino) pyrimidin-5-yl]-N-methyl-N-(1,3-thiazol-2-yl)carboxamide] as the molecule, how does the “Mean AC1.4” value read?
A: The value was “D (D=>20 uM)”.

Q: How did the “Mean AC1.4” value turn out when `CCOC(=O)c1cnn(-c2cnc(NCC3(c4ncccc4F)CCC3)nc2)c1` [ethyl 1-[2-({[(3-fluoro-2-pyridyl)cyclobutyl]methyl}amino)pyrimidin-5-yl] pyrazole-4-carboxylate] was run?
A: Its value is “D (D=>20 uM)”.

Q: Which “Mean AC1.4” value does the source give for `NC(=O)c1csc(-c2cnc(NCC3(c4ncccc4F)CCC3)nc2)n1` [2-[2-({[(3-fluoro-2-pyridyl)cyclobutyl]methyl}amino)pyrimidin-5-yl]-1,3-thiazole-4-carboxamide] here?
A: Its value is “B (B=1-10 uM)”.

Q: How did the “Mean AC1.4” value turn out when `N#Cc1cnc(NC2(c3ccc(F)cc3)CCC2)nc1` [2-{[(4-fluorophenyl)cyclobutyl]amino} pyrimidine-5-carbonitrile] was run?
A: The value was “C (C=10-20 uM)”.

Q: With `CC(C)(CNc1ncc2c(n1)CN(C(=O)C(N)=O)CC2)c1ccc(F)cc1` [2-(2-{[2-(4-fluorophenyl)-2-methylpropyl]amino}(5,6,7,8-tetrahydropyridino[3,4-d]pyrimidin-7-yl))-2-oxoacetamide] as the molecule, how does the “Mean AC1.4” value read?
A: The value was “D (D=>20 uM)”.

Q: Which “Mean AC1.4” value does the source give for `CC(C)(Nc1ncc(C2N=NN=N2)cn1)c1ncccc1Cl` [(5-(5H-1,2,3,4-tetraazol-5-yl)pyrimidin-2-yl)[1-(3-chloro(2-pyridyl))-isopropyl]amine] here?
A: The value was “D (D=>20 uM)”.
